# Test results from ChEMBL document CHEMBL4321785, “Challenges and Opportunities for Therapeutics Targeting the Voltage-Gated Sodium Channel Isoform NaV1.7” (J Med Chem, 2019).
# How the values were obtained:
# Homo sapiens [1] = species on record: Homo sapiens; assay: Selectivity index, ratio of IC50 for inhibition of human Nav1.1 expressed in HEK293 cells by electrophysiology assay to IC50 for inhibition of human Nav1.7 expressed in HEK293 cells by electrophysiology assay; type: cell-based
# Homo sapiens [2] = species on record: Homo sapiens; assay: Selectivity index, ratio of IC50 for inhibition of human Nav1.2 expressed in HEK293 cells by electrophysiology assay to IC50 for inhibition of human Nav1.7 expressed in HEK293 cells by electrophysiology assay; type: cell-based
# Homo sapiens [3] = species on record: Homo sapiens; assay: Selectivity index, ratio of IC50 for inhibition of human Nav1.5 expressed in HEK293 cells by electrophysiology assay to IC50 for inhibition of human Nav1.7 expressed in HEK293 cells by electrophysiology assay; type: cell-based
# Homo sapiens [4] = species on record: Homo sapiens; assay: Selectivity index, ratio of IC50 for inhibition of human Nav1.6 expressed in HEK293 cells by electrophysiology assay to IC50 for inhibition of human Nav1.7 expressed in HEK293 cells by electrophysiology assay; type: cell-based
# [5] = Ratio of unbound plasma concentration in mouse model of formalin-induced pain to IC50 for inhibition of mouse Nav1.7 expressed in HEK293 cells by electrophysiology assay; type: cell-based
# [6] = Ratio of unbound plasma concentration in mouse model of inherited erythromelalgia to IC50 for inhibition of human Nav1.7 expressed in HEK293 cells by electrophysiology assay; type: cell-based
# [7] = Cmax in healthy human; type: ADME; conditions: in vivo
# [8] = target: T1, Sodium channel protein type 4 subunit alpha (Homo sapiens, UniProt P35499); assay: Binding affinity to human recombinant Nav1.4 by radioligand binding assay
# [9] = target: T2, Sodium channel protein type 5 subunit alpha (Homo sapiens, UniProt Q14524); assay: Binding affinity to human recombinant Nav1.5 by radioligand binding assay
# [10] = Unbound fraction in mouse plasma; type: ADME, cell-free
# [11] = Ratio of unbound plasma concentration in mouse model of inherited erythromelalgia to Kd for binding affinity to recombinant human Nav1.7 by radioligand binding assay; type: ADME; conditions: in vivo
# [12] = Ratio of unbound plasma concentration in mouse model of formalin-induced pain to Kd for binding affinity to mouse Nav1.7 by radioligand binding assay; type: ADME; conditions: in vivo
# [13] = Ratio of unbound plasma concentration in mouse model of CFA-induced cold allodynia to Kd for binding affinity to mouse Nav1.7 by radioligand binding assay; type: ADME; conditions: in vivo
# [14] = Ratio of unbound plasma concentration in mouse model of SNI-induced pain to Kd for binding affinity to mouse Nav1.7 by radioligand binding assay; type: ADME; conditions: in vivo
# [15] = Ratio of unbound plasma concentration in mouse model of STZ-induced pain measured on day 1 to Kd for binding affinity to mouse Nav1.7 by radioligand binding assay; type: ADME; conditions: in vivo
# [16] = target: Sodium channel protein type 9 subunit alpha (Mus musculus, UniProt Q62205); assay: Binding affinity to mouse Nav1.7 by radioligand binding assay
# [17] = target: T3, Sodium channel protein type 1 subunit alpha (Homo sapiens, UniProt P35498); assay: Binding affinity to human recombinant Nav1.1 by radioligand binding assay
# [18] = target: T4, Sodium channel protein type 2 subunit alpha (Homo sapiens, UniProt Q99250); assay: Binding affinity to human recombinant Nav1.2 by radioligand binding assay
# [19] = target: T5, Sodium channel protein type 3 subunit alpha (Homo sapiens, UniProt Q9NY46); assay: Binding affinity to human recombinant Nav1.3 by radioligand binding assay
# [20] = target: T6, Sodium channel protein type 8 subunit alpha (Homo sapiens, UniProt Q9UQD0); assay: Binding affinity to human recombinant Nav1.6 by radioligand binding assay
# [21] = target: Sodium channel protein type 10 subunit alpha (Mus musculus, UniProt Q6QIY3); assay: Binding affinity to mouse Nav1.8 […] by radioligand binding assay
# Homo sapiens [22] = species on record: Homo sapiens; assay: Selectivity ratio of Kd for binding affinity to human recombinant Nav1.1 by radioligand binding assay to Kd for binding affinity to human recombinant Nav1.7 by radioligand binding assay
# Homo sapiens [23] = species on record: Homo sapiens; assay: Selectivity ratio of Kd for binding affinity to human recombinant Nav1.2 by radioligand binding assay to Kd for binding affinity to human recombinant Nav1.7 by radioligand binding assay
# Homo sapiens [24] = species on record: Homo sapiens; assay: Selectivity ratio of Kd for binding affinity to human recombinant Nav1.3 by radioligand binding assay to Kd for binding affinity to human recombinant Nav1.7 by radioligand binding assay
# Homo sapiens [25] = species on record: Homo sapiens; assay: Selectivity ratio of Kd for binding affinity to human recombinant Nav1.4 by radioligand binding assay to Kd for binding affinity to human recombinant Nav1.7 by radioligand binding assay
# Homo sapiens [26] = species on record: Homo sapiens; assay: Selectivity ratio of Kd for binding affinity to human recombinant Nav1.5 by radioligand binding assay to Kd for binding affinity to human recombinant Nav1.7 by radioligand binding assay
# Homo sapiens [27] = species on record: Homo sapiens; assay: Selectivity ratio of Kd for binding affinity to human recombinant Nav1.6 by radioligand binding assay to Kd for binding affinity to human recombinant Nav1.7 by radioligand binding assay
# [28] = Plasma concentration in mouse model of pain at 60 mg/kg, po during hot plate test; type: ADME, organism-based; conditions: in vivo
# [29] = Plasma concentration in mouse model of pain at 60 mg/kg, po during tail immersion test; type: ADME, organism-based; conditions: in vivo
# [30] = Plasma concentration in mouse model of pain at 60 mg/kg, po during Randall-Selitto test; type: ADME, organism-based; conditions: in vivo
# [31] = Plasma concentration in mouse model of CFA-induced pain at 60 mg/kg, po during Hargreaves test; type: ADME, organism-based; conditions: in vivo
# [32] = Plasma concentration in mouse model of capsaicin-induced pain at 60 mg/kg, po during von Frey test; type: ADME, organism-based; conditions: in vivo
# [33] = Ratio of plasma concentration in mouse model of pain at 60 mg/kg, po during hot plate test to IC50 for inhibition of mouse Nav1.7 expressed in HEK293 cells by electrophysiology assay; type: organism-based; conditions: in vivo
# [34] = Ratio of plasma concentration in mouse model of pain at 60 mg/kg, po during tail immersion test to IC50 for inhibition of mouse Nav1.7 expressed in HEK293 cells by electrophysiology assay; type: organism-based; conditions: in vivo
# [35] = Ratio of plasma concentration in mouse model of pain at 60 mg/kg, po during Randall-Selitto test to IC50 for inhibition of mouse Nav1.7 expressed in HEK293 cells by electrophysiology assay; type: organism-based; conditions: in vivo
# [36] = Ratio of plasma concentration in mouse model of CFA-induced pain at 60 mg/kg, po during Hargreaves test to IC50 for inhibition of mouse Nav1.7 expressed in HEK293 cells by electrophysiology assay; type: organism-based; conditions: in vivo
# [37] = Ratio of plasma concentration in mouse model of capsaicin-induced pain at 60 mg/kg, po during von Frey test to IC50 for inhibition of mouse Nav1.7 expressed in HEK293 cells by electrophysiology assay; type: organism-based; conditions: in vivo
# [38] = target: T3, Sodium channel protein type 1 subunit alpha; assay: Inhibition of human Nav1.1 expressed in HEK293 cells by electrophysiology assay; type: cell-based
# [39] = target: T4, Sodium channel protein type 2 subunit alpha; assay: Inhibition of human Nav1.2 expressed in HEK293 cells by electrophysiology assay; type: cell-based
# [40] = target: T5, Sodium channel protein type 3 subunit alpha; assay: Inhibition of human Nav1.3 expressed in HEK293 cells by electrophysiology assay; type: cell-based
# [41] = target: T1, Sodium channel protein type 4 subunit alpha; assay: Inhibition of human Nav1.4 expressed in HEK293 cells by electrophysiology assay; type: cell-based
# [42] = target: T2, Sodium channel protein type 5 subunit alpha; assay: Inhibition of human Nav1.5 expressed in HEK293 cells by electrophysiology assay; type: cell-based
# [43] = target: T6, Sodium channel protein type 8 subunit alpha; assay: Inhibition of human Nav1.6 expressed in HEK293 cells by electrophysiology assay; type: cell-based
# Rattus norvegicus [44] = assay: Analgesic activity in iv dosed rat model of CFA-induced pain; type: functional
# Rattus norvegicus [45] = assay: Analgesic activity in it dosed rat model of CFA-induced pain; type: functional
# Rattus norvegicus [46] = assay: Analgesic activity in it dosed rat model of formalin-induced pain; type: functional
# Rattus norvegicus [47] = assay: Analgesic activity in it dosed rat model of CFA-induced pain by Hargreaves test; type: functional
# T4 sequence (Q99250 whole entry): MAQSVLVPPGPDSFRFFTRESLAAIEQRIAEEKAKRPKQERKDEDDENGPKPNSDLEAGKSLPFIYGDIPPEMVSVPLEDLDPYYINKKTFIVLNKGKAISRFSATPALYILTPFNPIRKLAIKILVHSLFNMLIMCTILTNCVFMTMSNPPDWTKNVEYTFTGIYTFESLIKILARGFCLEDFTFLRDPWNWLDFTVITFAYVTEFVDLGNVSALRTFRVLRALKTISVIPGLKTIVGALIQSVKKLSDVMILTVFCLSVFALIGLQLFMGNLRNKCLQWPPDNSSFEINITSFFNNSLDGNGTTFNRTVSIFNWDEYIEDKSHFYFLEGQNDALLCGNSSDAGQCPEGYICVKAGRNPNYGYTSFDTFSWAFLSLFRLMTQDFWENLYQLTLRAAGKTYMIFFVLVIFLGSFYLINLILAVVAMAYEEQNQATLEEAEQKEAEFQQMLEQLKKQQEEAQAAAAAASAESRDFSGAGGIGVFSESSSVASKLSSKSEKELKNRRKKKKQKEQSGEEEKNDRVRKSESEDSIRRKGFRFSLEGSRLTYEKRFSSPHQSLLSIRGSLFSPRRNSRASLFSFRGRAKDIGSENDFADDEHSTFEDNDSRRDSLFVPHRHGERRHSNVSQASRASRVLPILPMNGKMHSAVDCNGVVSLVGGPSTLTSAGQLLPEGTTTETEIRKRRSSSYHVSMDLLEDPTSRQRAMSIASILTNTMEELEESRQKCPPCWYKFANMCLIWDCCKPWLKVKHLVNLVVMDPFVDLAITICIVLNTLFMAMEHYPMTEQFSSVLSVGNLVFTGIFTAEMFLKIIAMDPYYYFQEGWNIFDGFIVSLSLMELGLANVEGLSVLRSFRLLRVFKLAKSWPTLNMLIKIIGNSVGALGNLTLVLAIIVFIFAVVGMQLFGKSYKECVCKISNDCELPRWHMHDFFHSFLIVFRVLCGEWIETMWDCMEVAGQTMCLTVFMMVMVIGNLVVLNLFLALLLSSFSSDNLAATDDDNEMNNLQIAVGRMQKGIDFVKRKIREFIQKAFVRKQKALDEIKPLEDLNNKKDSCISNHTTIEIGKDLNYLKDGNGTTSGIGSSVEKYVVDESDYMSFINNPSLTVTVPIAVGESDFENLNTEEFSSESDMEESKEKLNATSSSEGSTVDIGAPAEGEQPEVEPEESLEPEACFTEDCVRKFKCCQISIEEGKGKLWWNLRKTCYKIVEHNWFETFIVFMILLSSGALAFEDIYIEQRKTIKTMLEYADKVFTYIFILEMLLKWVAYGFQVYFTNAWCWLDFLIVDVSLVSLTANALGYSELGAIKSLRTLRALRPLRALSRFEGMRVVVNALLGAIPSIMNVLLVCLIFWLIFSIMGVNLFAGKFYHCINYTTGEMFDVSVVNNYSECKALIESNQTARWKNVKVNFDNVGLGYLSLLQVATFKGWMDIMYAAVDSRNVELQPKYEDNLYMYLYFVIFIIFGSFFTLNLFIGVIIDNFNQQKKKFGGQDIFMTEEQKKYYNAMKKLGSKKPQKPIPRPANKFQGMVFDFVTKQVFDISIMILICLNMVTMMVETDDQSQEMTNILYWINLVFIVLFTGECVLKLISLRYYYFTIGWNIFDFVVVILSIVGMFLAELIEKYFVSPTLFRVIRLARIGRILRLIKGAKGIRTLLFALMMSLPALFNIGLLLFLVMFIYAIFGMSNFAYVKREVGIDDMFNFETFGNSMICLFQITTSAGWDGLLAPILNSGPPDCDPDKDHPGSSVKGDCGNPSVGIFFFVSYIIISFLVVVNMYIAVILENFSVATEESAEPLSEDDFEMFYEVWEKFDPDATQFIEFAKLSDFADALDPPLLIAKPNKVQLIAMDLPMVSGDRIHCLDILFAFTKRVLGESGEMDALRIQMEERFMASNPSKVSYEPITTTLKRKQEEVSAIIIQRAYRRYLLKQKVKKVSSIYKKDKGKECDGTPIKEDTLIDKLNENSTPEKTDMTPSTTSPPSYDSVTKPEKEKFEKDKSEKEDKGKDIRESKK
# T6 sequence (Q9UQD0 whole entry): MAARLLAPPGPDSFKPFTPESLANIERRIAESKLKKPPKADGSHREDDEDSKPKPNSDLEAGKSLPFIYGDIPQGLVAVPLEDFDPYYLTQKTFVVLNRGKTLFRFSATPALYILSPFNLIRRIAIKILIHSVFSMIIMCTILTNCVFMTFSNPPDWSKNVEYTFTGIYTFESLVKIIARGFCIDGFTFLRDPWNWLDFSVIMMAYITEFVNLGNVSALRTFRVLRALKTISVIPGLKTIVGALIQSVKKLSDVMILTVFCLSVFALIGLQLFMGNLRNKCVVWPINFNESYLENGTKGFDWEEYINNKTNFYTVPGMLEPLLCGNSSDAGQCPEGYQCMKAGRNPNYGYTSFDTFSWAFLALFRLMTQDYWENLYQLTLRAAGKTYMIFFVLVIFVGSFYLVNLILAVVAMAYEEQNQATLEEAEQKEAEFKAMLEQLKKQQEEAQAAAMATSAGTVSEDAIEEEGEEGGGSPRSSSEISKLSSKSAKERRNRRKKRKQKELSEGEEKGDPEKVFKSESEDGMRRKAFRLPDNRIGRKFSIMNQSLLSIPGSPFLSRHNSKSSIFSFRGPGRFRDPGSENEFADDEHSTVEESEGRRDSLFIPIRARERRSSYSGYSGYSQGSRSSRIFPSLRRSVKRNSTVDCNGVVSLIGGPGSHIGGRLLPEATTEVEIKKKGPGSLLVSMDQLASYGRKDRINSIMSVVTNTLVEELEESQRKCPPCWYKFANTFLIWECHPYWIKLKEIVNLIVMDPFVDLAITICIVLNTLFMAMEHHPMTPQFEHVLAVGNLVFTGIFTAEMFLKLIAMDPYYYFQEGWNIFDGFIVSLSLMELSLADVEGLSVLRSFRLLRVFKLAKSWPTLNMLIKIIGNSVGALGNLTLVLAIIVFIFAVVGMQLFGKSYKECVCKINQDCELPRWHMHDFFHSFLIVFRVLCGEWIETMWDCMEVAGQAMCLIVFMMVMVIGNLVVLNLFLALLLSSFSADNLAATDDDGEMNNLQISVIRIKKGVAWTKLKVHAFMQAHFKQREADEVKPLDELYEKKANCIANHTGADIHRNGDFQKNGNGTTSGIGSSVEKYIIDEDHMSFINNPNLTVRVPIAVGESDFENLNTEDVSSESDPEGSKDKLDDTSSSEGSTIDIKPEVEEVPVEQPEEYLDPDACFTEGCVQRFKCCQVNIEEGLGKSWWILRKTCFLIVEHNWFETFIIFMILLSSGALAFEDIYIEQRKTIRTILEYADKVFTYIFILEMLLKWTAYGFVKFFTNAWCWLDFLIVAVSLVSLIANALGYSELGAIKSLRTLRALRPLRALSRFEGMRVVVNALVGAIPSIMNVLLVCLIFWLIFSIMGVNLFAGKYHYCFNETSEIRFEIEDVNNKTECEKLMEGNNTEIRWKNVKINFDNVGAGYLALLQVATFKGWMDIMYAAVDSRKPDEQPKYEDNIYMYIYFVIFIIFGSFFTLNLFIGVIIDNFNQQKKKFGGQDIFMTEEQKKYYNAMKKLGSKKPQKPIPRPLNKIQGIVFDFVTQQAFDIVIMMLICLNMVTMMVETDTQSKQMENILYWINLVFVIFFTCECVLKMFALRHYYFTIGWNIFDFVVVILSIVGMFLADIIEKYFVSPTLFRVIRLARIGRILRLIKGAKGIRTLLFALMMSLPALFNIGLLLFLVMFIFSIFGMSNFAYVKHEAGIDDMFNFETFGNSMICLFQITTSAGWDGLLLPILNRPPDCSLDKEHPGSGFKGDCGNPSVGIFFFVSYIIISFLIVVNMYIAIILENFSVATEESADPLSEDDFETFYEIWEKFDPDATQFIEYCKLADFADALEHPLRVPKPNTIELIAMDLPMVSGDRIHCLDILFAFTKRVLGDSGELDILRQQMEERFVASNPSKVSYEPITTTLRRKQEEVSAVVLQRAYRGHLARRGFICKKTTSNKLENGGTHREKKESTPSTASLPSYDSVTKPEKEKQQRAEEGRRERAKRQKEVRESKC
structure (smiles),measurement,setting,value
CC1(COc2cc(F)c(C(=O)NS(=O)(=O)C3CC3)cc2C2CC2)CCC2(CC1)CC2,Ratio IC50,Homo sapiens [1],10
same,Ratio IC50,Homo sapiens [2],3.3
same,Ratio IC50,Homo sapiens [3],83
same,Ratio IC50,Homo sapiens [4],63
same,Ratio,[5],22
same,Ratio,[6],5.2
Nc1[nH]ncc1-c1cc(Cl)ccc1Oc1cc(F)c(S(=O)(=O)Nc2cscn2)cc1Cl [PF-05089771],Cmax,[7],> 10000 ng/mL
Cc1nn([C@@H]2CCN([C@H](C)c3cc(Cl)cc(Cl)c3)C2)c2cc(F)c(C(=O)NS(=O)(=O)C3CC3)cc12,Kd,[8],47 nM
same,Kd,[9],460 nM
same,fraction unbound,[10],0.007
same,Ratio,[11],2.3
same,Ratio,[12],3.3
same,Ratio,[13],6.2
same,Ratio,[14],5.7
same,Ratio,[15],5
same,Kd,[16],14 nM
same,Kd,[17],140 nM
same,Kd,[18],140 nM
same,Kd,[19],110 nM
same,Kd,[20],620 nM
same,Kd,[21],22000 nM
same,Ratio Ki,Homo sapiens [22],6.4
same,Ratio Ki,Homo sapiens [23],6.4
same,Ratio Ki,Homo sapiens [24],5
same,Ratio Ki,Homo sapiens [25],2.1
same,Ratio Ki,Homo sapiens [26],21
same,Ratio Ki,Homo sapiens [27],28
same,concentration,[28],49.3 µM
same,concentration,[29],49.3 µM
same,concentration,[30],49.3 µM
same,concentration,[31],67.9 µM
same,concentration,[32],31.1 µM
same,Ratio,[33],25
same,Ratio,[34],25
same,Ratio,[35],25
same,Ratio,[36],34
same,Ratio,[37],16
CSCC[C@@H]1NC(=O)CNC(=O)[C@H](CCC(=O)O)NC(=O)[C@@H]2CSSC[C@H](NC(=O)[C@@H](N)Cc3ccc(O)cc3)C(=O)N[C@@H](CCC(N)=O)C(=O)N[C@@H](CCCCN)C(=O)N[C@@H](Cc3c[nH]c4ccccc34)C(=O)N[C@@H](CCSC)C(=O)N[C@@H](Cc3c[nH]c4ccccc34)C(=O)N[C@@H]([C@@H](C)O)C(=O)N[C@H]3CSSC[C@H](NC(=O)[C@H](C(C)C)NC1=O)C(=O)N[C@@H](CCCNC(=N)N)C(=O)N[C@@H](CC(C)C)C(=O)N[C@@H](Cc1c[nH]c4ccccc14)C(=O)N[C@H](C(=O)N[C@@H](CCCCN)C(=O)N[C@@H](CCCCN)C(=O)N[C@@H](CCCCN)C(=O)N[C@@H](CC(C)C)C(=O)N[C@@H](Cc1c[nH]c4ccccc14)C(=O)O)CSSC[C@H](NC(=O)[C@H](CCCCN)NC(=O)[C@H](CCCNC(=N)N)NC(=O)[C@H](CCC(=O)O)NC(=O)[C@H](CO)NC(=O)[C@H](CC(=O)O)NC3=O)C(=O)N2,IC50,[38],16 nM
same,IC50,[39],79 nM
same,IC50,[40],25 nM
same,IC50,[41],79 nM
same,IC50,[42],400 nM
same,IC50,[43],32 nM
same,ED,Rattus norvegicus [44],0.1 mg/kg
same,ED,Rattus norvegicus [45],0.01 mg/kg
same,ED,Rattus norvegicus [46],2 µg
same,ED,Rattus norvegicus [47],2 µg
O=C(NS(=O)(=O)N1CCC1)c1cc(C2CC2)c(OCC23CC4CC(CC(C4)C2)C3)cc1F,IC50,[39],20 nM
same,IC50,[42],49 nM
same,IC50,[43],480 nM
